According to the NIST ThermoML archive (doi:10.1016/j.tca.2017.04.014):

Assay: molar heat capacity at constant pressure; xn = mol fraction of the nth substance listed
Details: 101.3 kPa, Crystal, DSC

[O-2].[O-2].[Th+4] [thorium dioxide] + [O-2].[O-2].[U+4]
molar heat capacity at constant pressure [J/K/mol]
Details	x1 = 0.3	x1 = 0.5	x1 = 0.6	x1 = 0.7	x1 = 0.8	x1 = 0.9	x1 = 1
300 K	73.2	70.4	67.7	66.6	66.7	65.1	62.1
310 K	73.7	71.8	69.3	67.6	67.3	66.4	61.8
320 K	75.6	72.6	70.2	68.6	67.9	67.5	62.8
330 K	75.9	73.8	71	69.3	69.1	68	63.5
340 K	76.7	75.1	71.9	69.9	69.7	69	64.2
350 K	78	76.1	72.6	70.4	70.8	70.1	65.1
360 K	78.6	76.8	73.3	70.8	72.1	71.7	65.6
370 K	78.9	77	74.5	71.4	72.3	71.7	65.9
380 K	79.8	77.5	75.1	72	72.3	72	66.8
390 K	80.2	79	75.8	72.9	74.1	73	67.3
400 K	80.8	79.3	76.4	73.9	74.8	73.8	67.7
410 K	81.3	79.6	76.8	73.8	74.8	74.4	68
420 K	81.5	80.3	77.3	75.1	75.4	74.1	68.4
430 K	82.1	81.2	77.5	75.5	75.9	74.4	68.6
440 K	82.3	81.2	77.9	75.8	76.4	74.9	68.9
450 K	83.3	82.1	78.6	75.7	76.9	76	69.6
460 K	83.7	82.2	79.4	75.8	77.2	76.2	69.8
470 K	83.9	82.8	79.5	76.2	77.5	76.7	70.1
480 K	84	83.5	80.2	76.6	77.3	77	70.2
490 K	84.5	83	80	77.9	78	77	70.5
500 K	84.9	83.8	80.7	78.1	78.8	77	70.7
510 K	85.5	84.1	80.7	77.9	78.6	78.3	70.9
520 K	85.3	84.8	81	78.3	79	78.6	71.2
530 K	85.5	84.5	81	78.4	79.6	78.6	71.4
540 K	86.4	85	81.5	78.9	79.7	78.9	71.7
550 K	86.6	85.1	82.9	79.6	80	78.9	71.9
560 K	86.7	85.8	82.8	79.8	80.2	79.1	72
570 K	86.7	86.2	82.8	80.3	80.1	79.7	72.1
580 K	87.1	85.6	83.4	80.5	80.2	79.7	72.3
590 K	87.4	86.7	83.4	80.6	80.5	79.7	72.5
600 K	88	87	83.7	80.6	80.6	79.7	72.5
610 K	87.5	86.6	84.4	80.6	80.6	79.7	72.5
620 K	88	86.9	84.8	81.2	80.6	79.9	73
630 K	88.5	87.5	84.2	81.4	81.1	80.2	73
640 K	88.7	87.2	85.1	81.5	81.1	80.5	73.3
650 K	88.9	87.3	85.1	82	80.9	80.7	73.6
660 K	89	87.6	84.9	81.8	81.6	79.7	73.5
670 K	88.9	88.3	85.8	82.3	81.9	79.7	73.6
680 K	89.4	88.2	86.4	82.4	81.5	79.7	73.6
690 K	90.2	88.2	86.4	82.4	81.6	79.9	73.4
700 K	90.4	88.6	86.4	83.3	81.7	80.2	73.8
710 K	91.2	89.5	86.4	83.3	82.2	80.5	74.5
720 K	91.9	89.2	86.7	83.3	82.4	80.7	74.5
730 K	92.2	90.1	87.3	83.3	82.7	81.2	74.6
739 K	–	–	–	–	–	–	74.7
740 K	92.9	90.4	87.7	83.3	82.7	81.4	–
750 K	93.1	91	87.8	83.6	82.7	81.3	74.6
760 K	93.5	91	89.1	83.9	82.9	81.5	75
770 K	94	91.7	89.1	84.3	82.8	81.5	75.3
780 K	94.2	91.8	89.1	84.5	83.1	81	75.3
790 K	94.3	92.3	89.1	84.9	83	81.8	75.3
800 K	94.4	92.3	89.1	84.9	83.3	81.3	75.7
810 K	95	92.7	89.8	85.3	83.1	82.3	75.7
820 K	95.3	92	90.2	85.7	83.2	82.3	75.7
830 K	95.6	92.8	89.5	86	83.3	82.3	75.9
840 K	96	92.9	90.3	86	83.5	82.3	76
850 K	96.1	93.2	90.7	86	83.6	82.3	76.1
860 K	96.1	93.4	90.7	86	83.7	83.4	76.4
870 K	96.3	93.8	90.8	86.4	84	83.9	76.1
